A word on the T/C: it is the result in the treated group divided by that in the control group, in per cent.

A short description of assay [1]: Survivors of CDF1 mice on day 4 after 1st injection of compound at 20 mg/kg in six mice; 6/6. Format: functional, Mus musculus.
For assay [2], the system named is P388. Put plainly: Percent ratio of the medium survival time for P388 murine leukemia in CDF1 mice at 10 mg/kg. Format: functional, Mus musculus.
The nature of assay [3]: Survivors of CDF1 mice on day 4 after 1st injection of compound at 5 mg/kg in six mice; 6/6. Format: functional, Mus musculus.
Assay [4] has as its system L1210. In words: Concentration required to inhibit the growth of L1210 leukemia cells. Format: functional. The following applies: Mus musculus, read-out: ED50 (the source's name).
Assay [5] is described as follows: Survivors of CDF1 mice on day 4 after 1st injection of compound at 10 mg/kg in six mice; 6/6. It counts as functional, Mus musculus.
Assay [6] has as its system P388. Put plainly: (§1) Survivors of CDF1 mice on day 4 after 1st injection of compound at 40 mg/kg in six mice; 6/6. It counts as functional, Mus musculus.
Assay [7] concerns P388. In words: (§2) Survivors of CDF1 mice on day 4 after 1st injection of compound 80 at mg/kg in six mice; 6/6. It counts as functional, Mus musculus.
The nature of assay [8]: Survivors of CDF1 mice on day 4 after 1st injection of compound 12 at mg/kg in six mice; 6/6. It counts as functional, Mus musculus.
The test system of assay [9] is P388. Put plainly: Percent ratio of the medium survival time for P388 murine leukemia in CDF1 mice at 12 mg/kg. It counts as functional, Mus musculus.
Assay [10] can be described thus: Survivors of CDF1 mice on day 4 after 1st injection of compound at 0.75 mg/kg in six mice; 6/6. It counts as functional, Mus musculus.
Assay [11] has as its system P388. In words: Percent ratio of the medium survival time for P388 murine leukemia in CDF1 mice at 1.5 mg/kg. It counts as functional, Mus musculus.
Assay [12] deals with P388. In words: Percent ratio of the medium survival time for P388 murine leukemia in CDF1 mice at 6 mg/kg. It counts as functional, Mus musculus.
Assay [13] has as its system P388. In words: Percent ratio of the medium survival time for P388 murine leukemia in CDF1 mice at 0.75 mg/kg. Format: functional, Mus musculus.
The nature of assay [14]: Survivors of CDF1 mice on day 4 after 1st injection of compound at 3 mg/kg in six mice; 6/6. Format: functional, Mus musculus.
For assay [15], the system named is P388. Put plainly: Percent ratio of the medium survival time for P388 murine leukemia in CDF1 mice at 3 mg/kg. It counts as functional, Mus musculus.
A short description of assay [16]: Survivors of CDF1 mice on day 4 after 1st injection of compound at 1.5 mg/kg in six mice; 6/6. It counts as functional, Mus musculus.
Assay [17] in a line: Survivors of CDF1 mice on day 4 after 1st injection of compound at 6 mg/kg in six mice; 6/6. Format: functional, Mus musculus.
Assay [18] can be described thus: Survivors of CDF1 mice on day 4 after 1st injection of compound at 5 mg/kg in seven mice; 7/7. It counts as functional, Mus musculus.
Assay [19] has as its system P388. Put plainly: Percent ratio of the medium survival time for P388 murine leukemia in CDF1 mice at 2.5 mg/kg. Format: functional, Mus musculus.
For assay [20], the system named is P388. In words: Percent ratio of the medium survival time for P388 murine leukemia in CDF1 mice at 20 mg/kg. It counts as functional, Mus musculus.
Assay [21] in a line: Survivors of CDF1 mice on day 4 after 1st injection of compound at 1.25 mg/kg in seven mice; 7/7. It counts as functional, Mus musculus.
Assay [22] in a line: Survivors of CDF1 mice on day 4 after 1st injection of compound at 20 mg/kg in seven mice; 7/7. It counts as functional, Mus musculus.
Assay [23] relates to P388. Put plainly: Percent ratio of the medium survival time for P388 murine leukemia in CDF1 mice at 40 mg/kg. It counts as functional, Mus musculus.
Assay [24] can be described thus: Survivors of CDF1 mice on day 4 after 1st injection of compound at 2.5 mg/kg in seven mice; 7/7. It counts as functional, Mus musculus.
For assay [25], the system named is P388. Put plainly: Percent ratio of the medium survival time for P388 murine leukemia in CDF1 mice at 1.25 mg/kg. It counts as functional, Mus musculus.
The nature of assay [26]: Survivors of CDF1 mice on day 4 after 1st injection of compound at 10 mg/kg in seven mice; 7/7. It counts as functional, Mus musculus.
A short description of assay [27]: Survivors of CDF1 mice on day 4 after 1st injection of compound 40 at mg/kg in seven mice; 5/7. It counts as functional, Mus musculus.
Assay [28] deals with P388. In words: Percent ratio of the medium survival time for P388 murine leukemia in CDF1 mice at 5 mg/kg. Format: functional, Mus musculus.
Assay [29] in a line: Survivors of CDF1 mice on day 4 after 1st injection of compound 25 at mg/kg in six mice; 6/6. It counts as functional, Mus musculus.
Assay [30] concerns P388. Put plainly: Percent ratio of the medium survival time for P388 murine leukemia in CDF1 mice at 6.25 mg/kg. Format: functional, Mus musculus.
For assay [31], the system named is P388. Put plainly: Percent ratio of the medium survival time for P388 murine leukemia in CDF1 mice at 3.12 mg/kg. It counts as functional, Mus musculus.
In assay [32] the test system is P388. Put plainly: Percent ratio of the medium survival time for P388 murine leukemia in CDF1 mice at 12.5 mg/kg. It counts as functional, Mus musculus.
Assay [33] in a line: Survivors of CDF1 mice on day 4 after 1st injection of compound at 6.25 mg/kg in six mice; 6/6. It counts as functional, Mus musculus.
Assay [34] relates to P388. Put plainly: Percent ratio of the medium survival time for P388 murine leukemia in CDF1 mice at 25 mg/kg. Format: functional, Mus musculus.
The nature of assay [35]: Survivors of CDF1 mice on day 4 after 1st injection of compound at 3.12 mg/kg in six mice; 6/6. It counts as functional, Mus musculus.
Assay [36] is described as follows: Survivors of CDF1 mice on day 4 after 1st injection of compound at 12.5 mg/kg in six mice; 6/6. It counts as functional, Mus musculus.
The nature of assay [37]: as §1. Format: functional, Mus musculus.
The nature of assay [38]: as §2. Format: functional, Mus musculus.
The test system of assay [39] is P388. Put plainly: Percent ratio of the medium survival time for P388 murine leukemia in CDF1 mice at 80 mg/kg. It counts as functional, Mus musculus.

Each structure is given as a SMILES string. Converted amounts (≈) assume the structure as drawn.

On to `CC(C)(CO)NCCNc1ccc(NCCNCCO)c2c1C(=O)c1ccccc1C2=O`, for which the Survival in assay [1], in assay [3], in assay [5], in [6] and in [7] was 6 in each case. Also, the T/C in [2] turned out to be 151%. For the same compound, the EC50 in assay [4] is 1.48 µg/mL (≈ 3.36 µM).

Regarding `O=C1c2c(O)ccc(O)c2C(=O)c2c(NCCNCCO)ccc(NCCNCCO)c21` [MITOXANTRONE], the Survival in assay [8], in assay [10], in assay [14], in assay [16] and in assay [17] was 6 each time. In addition, the T/C in [9] is given as 118%; in assay [11] it was 201%; in assay [12] it was 192%; in assay [13], 209%; in assay [15], 288%.

With `NCCNc1ccc(NCCNCCO)c2c1C(=O)c1ccccc1C2=O`, the Survival in assay [18] amounted to 7; in assay [21], 7; in [22] it was 7; in [24] it was 7; in assay [26] it was 7; in assay [27], 5. Further, the T/C in assay [19] worked out at 180%; in assay [2], 300%; in [20], 300%; in [23] it was 80%; in assay [25], 170%; in assay [28] it was 200%. For the same compound, in [4], the EC50 was determined as 2.38 µg/mL (≈ 6.46 µM).

Take `O=C1c2ccccc2C(=O)c2c(NCCNCCO)ccc(NCCNCCO)c21` [AMETANTRONE]: the Survival in assay [29], in assay [33], in assay [35] and in assay [36] was 6 throughout. The T/C was found to be 240% in [30], 200% in assay [31], 300% in assay [32] and 200% in [34]. For the same compound, the EC50 in assay [4] is 2.54 µg/mL (≈ 6.16 µM).

With `O=C1c2ccccc2C(=O)c2c(NCCN3CCOCC3)ccc(NCCNCCO)c21`, the Survival in assay [1], in assay [3], in assay [5], in assay [37] and in assay [38] was 6 throughout. Besides, the T/C in assay [2] stood at 132%. Also, the EC50 in [4] stood at 2.36 µg/mL (≈ 5.38 µM).

With `CN(C)CCNc1ccc(NCCNCCO)c2c1C(=O)c1ccccc1C2=O`, the Survival in assay [1], in assay [3], in assay [5], in [37] and in assay [38] was 6 in each case. The T/C in assay [2] was 151%; in assay [20], 173%; in assay [23], 192%; in assay [39], 192%; in [28] it was 144%. Further, the EC50 in assay [4] was 0.64 µg/mL (≈ 1.61 µM).

`O=C1c2ccccc2C(=O)c2c(NCCNCCO)ccc(NCCO)c21`: the Survival in [1], in assay [3], in assay [5], in [37] and in assay [38] was 6 in each case. Also, the T/C in assay [2] turned out to be 125%; in [20], 142%; in assay [23], 127%; in assay [39] it was 144%; in assay [28] it was 115%. In addition, in assay [4], the EC50 was 12.3 µg/mL (≈ 33.3 µM).

Values taken from ChEMBL document CHEMBL1124546, “Synthesis of unsymmetrically substituted 1,4-bis[(aminoalkyl)amino]anthracene-9,10-diones as potential antileukemic agents” (1989).
